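Following 48 hours of exposure in 96-well plates, responses at five concentrations were used to interpolate endpoints linearly. TGI: total growth inhibition.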
Key:
Experiment in all cases: DTP human tumour cell line panel, 48 h
786-0 renal = system: 786-0 renal
A498 renal = system: A498 renal
A549 NSCLC = system: A549 NSCLC
ACHN renal = system: ACHN renal
CAKI-1 renal = system: CAKI-1 renal
CCRF-CEM leukemia = system: CCRF-CEM leukemia
COLO 205 colon = system: COLO 205 colon
DLD-1 colon = system: DLD-1 colon
DMS 273 small cell lung = system: DMS 273 small cell lung
EKVX NSCLC = system: EKVX NSCLC
HCC-2998 colon = system: HCC-2998 colon
HCT-116 colon = system: HCT-116 colon
HCT-15 colon = system: HCT-15 colon
HL-60(TB) leukemia = system: HL-60(TB) leukemia
HOP-18 NSCLC = system: HOP-18 NSCLC
HOP-62 NSCLC = system: HOP-62 NSCLC
HOP-92 NSCLC = system: HOP-92 NSCLC
HT29 colon = system: HT29 colon
IGROV1 ovarian = system: IGROV1 ovarian
K-562 leukemia = system: K-562 leukemia
KM12 colon = system: KM12 colon
KM20L2 colon = system: KM20L2 colon
LOX IMVI melanoma = system: LOX IMVI melanoma
M14 melanoma = system: M14 melanoma
M19-MEL melanoma = system: M19-MEL melanoma
MALME-3M melanoma = system: MALME-3M melanoma
MOLT-4 leukemia = system: MOLT-4 leukemia
NCI-H226 lung = system: NCI-H226 lung
NCI-H23 lung = system: NCI-H23 lung
NCI-H460 lung = system: NCI-H460 lung
NCI-H522 lung = system: NCI-H522 lung
OVCAR-3 ovarian = system: OVCAR-3 ovarian
OVCAR-4 ovarian = system: OVCAR-4 ovarian
OVCAR-5 ovarian = system: OVCAR-5 ovarian
OVCAR-8 ovarian = system: OVCAR-8 ovarian
RPMI-8226 leukemia = system: RPMI-8226 leukemia
RXF 393 renal = system: RXF 393 renal
RXF-631 renal = system: RXF-631 renal
SF-268 CNS = system: SF-268 CNS
SF-295 CNS = system: SF-295 CNS
SF-539 CNS = system: SF-539 CNS
SK-MEL-2 melanoma = system: SK-MEL-2 melanoma
SK-MEL-28 melanoma = system: SK-MEL-28 melanoma
SK-MEL-5 melanoma = system: SK-MEL-5 melanoma
SK-OV-3 ovarian = system: SK-OV-3 ovarian
SN12C renal = system: SN12C renal
SNB-19 CNS = system: SNB-19 CNS
SNB-75 CNS = system: SNB-75 CNS
SNB-78 CNS = system: SNB-78 CNS
SW-620 colon = system: SW-620 colon
TK-10 renal = system: TK-10 renal
U251 CNS = system: U251 CNS
UACC-257 melanoma = system: UACC-257 melanoma
UACC-62 melanoma = system: UACC-62 melanoma
UO-31 renal = system: UO-31 renal
DMS 114 small cell lung = system: DMS 114 small cell lung
LXFL 529 NSCLC = system: LXFL 529 NSCLC
XF 498 CNS = system: XF 498 CNS
SR leukemia = system: SR leukemia

Measured: TGI

O=C(CCCCCCCCC(=O)OCCCn1cc(C(=O)NC(=O)OCc2ccccc2)c(=O)[nH]c1=O)OCCCn1cc(C(=O)NC(=O)OCc2ccccc2)c(=O)[nH]c1=O
not listed: DMS 114 small cell lung | LXFL 529 NSCLC | XF 498 CNS | SR leukemia
> 100 µM: all other assays above

c1cc(C2O[C@H]3CCCN3[C@@H]2c2ccncc2)ccn1 (stereo not given in full)
not listed: HCC-2998 colon | HL-60(TB) leukemia | HOP-18 NSCLC | HOP-92 NSCLC | RXF-631 renal | SR leukemia
> 100 µM: all other assays above

O=C(/C=C(\O)C(=O)O)/C=C(\O)c1ccc(Cl)cc1
not listed: RXF-631 renal
> 100 µM: all other assays above

Cc1cc(C)cc(NC(=O)CCC(=O)C2CCC/C2=N\NC(=O)C(=O)NN)c1 (stereo not given)
not listed: HOP-62 NSCLC | HOP-92 NSCLC | NCI-H522 lung | SNB-78 CNS | SR leukemia
> 100 µM: all other assays above
